In patent US20250057844A1, “METHODS OF TREATING NEOPLASTIC DISEASES” (SILLAJEN, INC., priority 2021, published 2025):
Entries after “also recorded” stand apart in the source; their conditions may differ. Read-outs that look alike come from different tables or passages of the source.

Assays:
[1] = test system: tumor patient-derived xenografts (PDX), including TNBC and hepatocellular cancer (HCC) models; experiment: Patient-derived xenografts (PDX) in mice; assay type: in vivo; settings: data not shown
biotinylated PLK1 = biotinylated PLK1 (Homo sapiens, UniProt P53350); experiment: Target residence time assay (Biacore T200 surface plasmon resonance), PLK1; assay type: binding; settings: SPR, 22° C.
Procedure: The affinity, i.e. the equilibrium dissociation constant (KD) ([…]), of the compound of formula (I) against TTK and PLK1 were determined using a Biacore T200TM surface plasmon resonance instrument using recombinant expressed TTK kinase domain (amino acids 519-808) or biotinylated PLK1. The immobilization of TTK was performed as described in Maia et al. Annals of Oncology, 2015; 26:2180-2192. The immobilization of biotinylated PLKI was performed as described in Willemsen-Seegers et al. Journal of Molecular Biology, 2017; 429:574-586. The subsequent single cycle kinetic assays were performed at 22° C. using a compound concentration gradient of 1, 3.6, 10, 31.6 and 100 nM for TTK and 10, 31.6, 100, 316 and 1000 nM for PLK1, a contact time of 100 s and a flow rate of […]. The dissociation period was 1200-1800 s and a correction for an unstable surface using a blank run with buffer was performed.

[2] = First PK study: single oral dose, two formulations; assay type: in vivo, female Swiss Albino mice; settings: for Tmax / bioavailability / AUC(0-inf) / AUC(0-t) / Cmax / half-life: Swiss Albino, mouse, plasma; for bioavailability: based on i.v. exposure; for AUC(0-t): AUC0-24 h; for Cmax: mean (SD); for half-life: read-out: Apparent T1/2 (converted)
Procedure: Plasma samples were collected on day 1 for Groups 1 to 6. Formulation 1 consisted of DMSO, cremophor EL, and 5% mannitol in water (10/10/80; v/v/v). Formulation 2 consisted of ethanol, PEG 400, and citric acid 20 mM (10/10/80; v/v/v). […] In each of the three studies blood was collected via the sephanous vein into K2-EDTA tubes kept on ice until centrifugation at 4° C. Plasma was stored at ap-proximately-80° C. […] PK parameters were calculated using Phoenix® WinNonLin 6.4. PK analysis was based on sparse sampling.

MDA-MB-231 tumor cells = experiment: MDA-MB-231 TNBC xenograft study
Procedure: Female NCr nu/nu nude mice (CharlesRiver laboratories) of 8-12 weeks of age were subcutaneously (s.c.) inoculated in the flank with 5×10^6 MDA-MB-231 tumor cells. Randomization into treatment groups (8 mice per group) was made when the mean tumor size was 100-150 mm3.
Body weights and tumor volumes were determined at least twice per week by measuring two dimensions with calipers and applying the formula “V=(L×W2)/2”, where V is the tumor volume, and L and W are the tumor length and width respectively. […] Mice were also culled if the BWL was determined to be >15% for 3 consecutive days. Any mice with >10% BWL received a dosing holiday until the BWL returned to <10%. All animal protocols were reviewed and approved by the relevant local committees in USA (IACUC) where the studies were performed.

[3] = female, po, 5 mg/kg, single oral 5 mg/kg, Formulation 1, female mice
[4] = female, po, 5 mg/kg, single oral 5 mg/kg, Formulation 2, female mice
[5] = female, po, 7.5 mg/kg, single oral 7.5 mg/kg, Formulation 1, female mice
[6] = female, po, 7.5 mg/kg, single oral 7.5 mg/kg, Formulation 2, female mice
[7] = female, po, 10 mg/kg, single oral 10 mg/kg, Formulation 1, female mice
[8] = female, po, 10 mg/kg, single oral 10 mg/kg, Formulation 2, female mice
[9] = single oral 5 mg/kg, Formulation 1, female mice
[10] = single oral 5 mg/kg, Formulation 2, female mice
[11] = single oral 7.5 mg/kg, Formulation 1, female mice
[12] = single oral 7.5 mg/kg, Formulation 2, female mice
[13] = single oral 10 mg/kg, Formulation 1, female mice
[14] = single oral 10 mg/kg, Formulation 2, female mice

biotinylated PLK1, sequence (P53350 whole entry, the tested form may be a part): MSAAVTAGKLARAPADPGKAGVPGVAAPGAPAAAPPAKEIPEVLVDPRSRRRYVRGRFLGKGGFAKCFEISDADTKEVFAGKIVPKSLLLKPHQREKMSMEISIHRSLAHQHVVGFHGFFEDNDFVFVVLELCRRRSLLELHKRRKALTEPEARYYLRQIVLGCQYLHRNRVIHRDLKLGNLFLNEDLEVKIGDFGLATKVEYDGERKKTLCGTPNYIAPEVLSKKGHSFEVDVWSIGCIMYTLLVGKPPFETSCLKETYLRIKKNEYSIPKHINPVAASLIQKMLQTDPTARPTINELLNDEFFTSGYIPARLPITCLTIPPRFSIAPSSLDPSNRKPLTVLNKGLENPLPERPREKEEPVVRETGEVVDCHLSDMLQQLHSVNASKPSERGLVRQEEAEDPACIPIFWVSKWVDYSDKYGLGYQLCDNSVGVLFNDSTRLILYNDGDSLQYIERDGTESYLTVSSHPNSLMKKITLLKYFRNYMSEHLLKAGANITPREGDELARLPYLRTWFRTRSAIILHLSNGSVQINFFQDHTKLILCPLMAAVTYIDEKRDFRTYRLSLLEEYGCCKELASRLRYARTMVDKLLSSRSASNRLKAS

Structure (SMILES): COc1cc(N2CCNCC2)ccc1Nc1ncc2c(n1)-n1ccc(C(=O)Nc3c(C)cccc3C)c1CC2 [compound of formula (I)]
- activity against PDX [1]: significant activity
- target-residency on PLK1 (biotinylated PLK1): just a few minutes
- Tmax ([2]; single oral 5 mg/kg, Formulation 1, female mice, read-out: Tmax): 4 h
- Tmax ([2]; single oral 7.5 mg/kg, Formulation 1, female mice, read-out: Tmax): 4 h
- Tmax ([2]; single oral 10 mg/kg, Formulation 1, female mice, read-out: Tmax): 4 h
- bioavailability ([2]; female, oral, single dose administration, read-out: oral bioavailability): 76 to 96%
- AUC(0-inf) [2, 3]: 1100 ng·h/mL
- AUC(0-t) [2, 3]: 1080 ng·h/mL
- bioavailability ([2]; female, po, 5 mg/kg, single oral 5 mg/kg, Formulation 1, female mice, read-out: F (%)): 76%
- Cmax [2, 3]: 108 ng/mL
- half-life [2, 3]: 3.27 h
- AUC(0-inf) [2, 4]: 1130 ng·h/mL
- AUC(0-t) [2, 4]: 1120 ng·h/mL
- bioavailability ([2]; female, po, 5 mg/kg, single oral 5 mg/kg, Formulation 2, female mice, read-out: F (%)): 78%
- Cmax [2, 4]: 103 ng/mL
- half-life [2, 4]: 3.29 h
- AUC(0-inf) [2, 5]: 1660 ng·h/mL
- AUC(0-t) [2, 5]: 1650 ng·h/mL
- bioavailability ([2]; female, po, 7.5 mg/kg, single oral 7.5 mg/kg, Formulation 1, female mice, read-out: F (%)): 77%
- Cmax [2, 5]: 164 ng/mL
- half-life [2, 5]: 3.23 h
- AUC(0-inf) [2, 6]: 1910 ng·h/mL
- AUC(0-t) [2, 6]: 1880 ng·h/mL
- bioavailability ([2]; female, po, 7.5 mg/kg, single oral 7.5 mg/kg, Formulation 2, female mice, read-out: F (%)): 88%
- Cmax [2, 6]: 172 ng/mL
- half-life [2, 6]: 3.51 h
- AUC(0-inf) [2, 7]: 2480 ng·h/mL
- AUC(0-t) [2, 7]: 2430 ng·h/mL
- bioavailability ([2]; female, po, 10 mg/kg, single oral 10 mg/kg, Formulation 1, female mice, read-out: F (%)): 86%
- Cmax [2, 7]: 210 ng/mL
- half-life [2, 7]: 3.66 h
- AUC(0-inf) [2, 8]: 2770 ng·h/mL
- AUC(0-t) [2, 8]: 2730 ng·h/mL
- bioavailability ([2]; female, po, 10 mg/kg, single oral 10 mg/kg, Formulation 2, female mice, read-out: F (%)): 96%
- Cmax [2, 8]: 276 ng/mL
- half-life [2, 8]: 3.43 h
- Tmax ([2]; female, single oral administration, 5-10 mg/kg, both formulations, read-out: median Tmax): 4 h
- % extrapolated [2, 9]: 1.11%
- AUCinf/Dose [2, 9]: 220 ng·h/mL/mg/kg
- AUClast/Dose [2, 9]: 216 (h*ng/mL)/(mg/kg)
- Cmax/Dose [2, 9]: 21.6 (ng/mL)/(mg/kg)
- % extrapolated [2, 10]: 1.14%
- AUCinf/Dose [2, 10]: 226 ng·h/mL/mg/kg
- AUClast/Dose [2, 10]: 224 (h*ng/mL)/(mg/kg)
- Cmax/Dose [2, 10]: 20.6 (ng/mL)/(mg/kg)
- % extrapolated [2, 11]: 1.06%
- AUCinf/Dose [2, 11]: 221 ng·h/mL/mg/kg
- AUClast/Dose [2, 11]: 220 (h*ng/mL)/(mg/kg)
- Cmax/Dose [2, 11]: 21.9 (ng/mL)/(mg/kg)
- % extrapolated [2, 12]: 1.67%
- AUCinf/Dose [2, 12]: 255 ng·h/mL/mg/kg
- AUClast/Dose [2, 12]: 251 (h*ng/mL)/(mg/kg)
- Cmax/Dose [2, 12]: 22.9 (ng/mL)/(mg/kg)
- % extrapolated [2, 13]: 1.9%
- AUCinf/Dose [2, 13]: 248 ng·h/mL/mg/kg
- AUClast/Dose [2, 13]: 243 (h*ng/mL)/(mg/kg)
- Cmax/Dose [2, 13]: 21 (ng/mL)/(mg/kg)
- % extrapolated [2, 14]: 1.47%
- AUCinf/Dose [2, 14]: 277 ng·h/mL/mg/kg
- AUClast/Dose [2, 14]: 273 (h*ng/mL)/(mg/kg)
- Cmax/Dose [2, 14]: 27.6 (ng/mL)/(mg/kg)
- Tumor-free (%) (cured based on pathological analysis) (MDA-MB-231 tumor cells; 25 mg/kg, QW, IV): 25%
- Tumor-free (pathological evaluation) (MDA-MB-231 tumor cells; 25 mg/kg, QW, IV, mouse 2 and 3): no detectable residual tumor cells; also recorded: no neoplastic epithelial cells (residual tumor cells) were observed
- Tumor-free (pathological evaluation) (MDA-MB-231 tumor cells; 25 mg/kg, QW, IV, mouse 2 and 3, listed as Formula (I)): Yes
- Tumor-free (pathological evaluation) (MDA-MB-231 tumor cells; 25 mg/kg, QW, IV, mouse 8): two small aggregates of neoplastic cells at the inoculation site; also recorded: still displayed some neoplastic tissue
- Tumor-free (pathological evaluation) (MDA-MB-231 tumor cells; 25 mg/kg, QW, IV, mouse 8, listed as Formula (I)): No
- local finding leading to treatment stop at Day-30 (MDA-MB-231 tumor cells; 2QW MTD i.v. dosing, repeated IV-injections): tail vein irritations (scabbing)
- efficacy of 0.5×MTD i.v. dosing versus MTD daily oral dosing (MDA-MB-231 tumor cells; FIG. 3 and FIG. 4): equipotent efficacy
- animals with no measurable/palpable tumor mass (MDA-MB-231 tumor cells; QW MTD i.v. until Day-98, observed Day-80 to Day-125, two of eight animals (FIG. 3 study)): 25%
- residual tumor cells by H&E (two animals without palpable tumor) (MDA-MB-231 tumor cells; QW MTD i.v., FIG. 3 study, Day-125): tumor-free
- efficacy of MTD i.v. dosing versus MTD oral daily treatment (MDA-MB-231 tumor cells; QW and 2QW i.v., FIG. 3 and FIG. 4): far superior
- drug-related animal deaths (MDA-MB-231 tumor cells; all i.v. QW and 2QW treatments, FIG. 1): no drug-related animal deaths recorded
- body weight loss (MDA-MB-231 tumor cells; dosing at the MTD, i.v., FIG. 1): ≤ 10%
- anti-tumor effect (MDA-MB-231 tumor cells; i.v. MTD-dosing (QW 25 mg/kg, 2QW 12.5 mg/kg), FIG. 1): tumor stasis and tumor regressions were observed
- tolerability (MDA-MB-231 tumor cells; mouse, in vivo): relatively well tolerated, with no animal deaths
- tumor volume of three of eight tumors after treatment cessation (MDA-MB-231 tumor cells; weekly i.v. MTD group, 20 days observation after cessation on D100): ≤ 6 mm3
